From patent publication US4792545A, “Boholmycin antibiotic” (Bristol-Myers Company, priority 1986, dated 1988)
In brackets after ≈: the same amount, converted by molar mass.

What was measured:
P. aeruginosa A20601 = assay: MIC by serial agar dilution; assay type: cell-based; details: Pseudomonas aeruginosa; P. aeruginosa A20601, kanamycin resistant strain; medium A: Nutrient agar; read-out: MIC
solubility = assay type: physicochemical
E. coli JR35/c600 = assay: MIC by serial agar dilution; assay type: cell-based; details: Escherichia coli, JR35/C600
B. anthracis IID-115 = assay: microbe, parasite or virus in culture; assay type: cell-based; details: Bacillus anthracis, IID115
M. luteus PCI-1001 = assay: MIC by serial agar dilution; assay type: cell-based; details: Micrococcus luteus, PCI1001; M. luteus PCI-1001; medium A: Nutrient agar; read-out: MIC
E. coli K-12 = assay: MIC by serial agar dilution; assay type: cell-based; details: Escherichia coli, K12, medium A: Nutrient agar, read-out: MIC
[1] = test system: experimental infections produced by S. aureus, E. coli and K. pneumoniae; assay: in vivo activity in mice, Table 5 overall; details: i.m.
E. coli Juhl [2] = assay: MIC by serial agar dilution; assay type: cell-based; details: Escherichia coli, medium A: Nutrient agar, read-out: MIC
E. cloacae A21006 = assay: MIC by serial agar dilution; assay type: cell-based; details: Enterobacter cloacae; E. cloacae A21006, kanamycin resistant strain; medium A: Nutrient agar; read-out: MIC
basicity = assay type: physicochemical
K. pneumoniae D-11 [3] = assay: MIC by serial agar dilution; assay type: cell-based; details: Klebsiella pneumoniae, D11, medium A: Nutrient agar, read-out: MIC
P. vulgaris A9436 = assay: MIC by serial agar dilution; assay type: cell-based; details: Proteus vulgaris, medium A: Nutrient agar, read-out: MIC
M. flavus D-12 = assay: MIC by serial agar dilution; assay type: cell-based; details: Micrococcus flavus, D12, medium A: Nutrient agar, read-out: MIC
S. aureus A20239 = assay: MIC by serial agar dilution; assay type: cell-based; details: Staphylococcus aureus; S. aureus A20239, kanamycin resistant strain; medium A: Nutrient agar; read-out: MIC
K. pneumoniae D-11 [4] = assay: in vivo efficacy in mice against experimental infection; details: Klebsiella pneumoniae, D11, im, 120 h; mice, i.m. just before challenge, K. pneumoniae D-11, 5 days observation; read-out: PD50
Mycobacterium phlei = assay: MIC by serial agar dilution; assay type: cell-based; details: Mycolicibacterium phlei; Mycobacterium phlei; medium B: No. 1001 medium; read-out: MIC
P. mirabilis A9554 = assay: MIC by serial agar dilution; assay type: cell-based; details: Proteus mirabilis, medium A: Nutrient agar, read-out: MIC
B. subtilis ATCC6633 = assay: MIC by serial agar dilution; assay type: cell-based; details: Bacillus subtilis, medium A: Nutrient agar, read-out: MIC
E. coli NIHJ = assay: MIC by serial agar dilution; assay type: cell-based; details: Escherichia coli, medium A: Nutrient agar, read-out: MIC
bacteria = assay: in vitro antibacterial activity, Table 3 panel overall; assay type: cell-based
Protocol: The minimum inhibitory concentration (MIC) of boholmycin dihydrochloride tetrahydrate was determined by a serial agar dilution method in comparison with sorbistin A1, streptomycin and kanamycin. Nutrient agar (Difco) was used for all bacteria except for strains of Mycobacterium which were tested in No. 1001 agar.

S. aureus Smith [5] = assay: MIC by serial agar dilution; assay type: cell-based; details: Staphylococcus aureus; S. aureus Smith; medium A: Nutrient agar; read-out: MIC
S. aureus Smith [6] = assay: in vivo efficacy in mice against experimental infection; details: Staphylococcus aureus, im, 120 h; mice, i.m. just before challenge, S. aureus Smith, 5 days observation; read-out: PD50
stability in solution = assay type: physicochemical
E. coli A20664 = assay: MIC by serial agar dilution; assay type: cell-based; details: Escherichia coli; E. coli A20664, kanamycin resistant strain; medium A: Nutrient agar; read-out: MIC
Mycobacterium 607 D46 = assay: MIC by serial agar dilution; assay type: cell-based; details: Mycobacterium 607 D46, kanamycin resistant strain; medium B: No. 1001 medium; read-out: MIC
S. marcescens A22302 = assay: MIC by serial agar dilution; assay type: cell-based; details: Serratia marcescens, A22302
P. aeruginosa A9843A = assay: microbe, parasite or virus in culture; assay type: cell-based; details: Pseudomonas aeruginosa, A9843A
Mycobacterium ranae = assay: MIC by serial agar dilution; assay type: cell-based; details: Mycobacterium ranae; medium B: No. 1001 medium; read-out: MIC
B. subtilis PCI-219 = assay: inhibiting growth of B. subtilis PCI-219 (paper disc); assay type: cell-based; details: Bacillus subtilis, PCI219, 28° C., 18 hours
Protocol: Boholmycin dihydrochloride tetrahydrate was tested in comparison with streptomycin, glebomycin, myomycin B and kanamycin in respect to stimulating growth of E. coli D64 and in respect to inhibiting growth of B. subtilis PCI-219. The results are shown in Table 4 wherein the term "boholmycin" is used for short in referring to boholmycin dihydrochloride tetrahydrate.
*^1 8 mm paper disc containing 35 μl of test solution
*^3 Incubation at 28° C. for 18 hours

Mycobacterium 607 D87 = assay: MIC by serial agar dilution; assay type: cell-based; details: Mycobacterium 607 D87; medium B: No. 1001 medium; read-out: MIC
S. marcescens A20019 = assay: MIC by serial agar dilution; assay type: cell-based; details: Serratia marcescens, A20019
P. aeruginosa A9930 = assay: MIC by serial agar dilution; assay type: cell-based; details: Pseudomonas aeruginosa, medium A: Nutrient agar, read-out: MIC
[7] = toxic signs in mice, intravenous administration; assay type: in vivo; details: up to a dose of 1,000 mg/kg
S. aureus 209P = assay: MIC by serial agar dilution; assay type: cell-based; details: Staphylococcus aureus; S. aureus 209P; medium A: Nutrient agar; read-out: MIC
K. pneumoniae A9678 = assay: MIC by serial agar dilution; assay type: cell-based; details: Klebsiella pneumoniae, medium A: Nutrient agar, read-out: MIC
E. cloacae A20364 = assay: MIC by serial agar dilution; assay type: cell-based; details: Enterobacter cloacae; E. cloacae A20364, kanamycin resistant strain; medium A: Nutrient agar; read-out: MIC
E. coli D64 = assay: stimulating growth of streptomycin-dependent E. coli D64 (paper disc); assay type: cell-based; details: for Growth zone vs E. coli D64, hazy growth zone: value in parentheses
Text: The results are shown in Table 4 wherein the term "boholmycin" is used for short in referring to boholmycin dihydrochloride tetrahydrate.

E. coli Juhl [8] = assay: in vivo efficacy in mice against experimental infection; details: Escherichia coli, im, 120 h; mice, i.m. just before challenge, E. coli Juhl, 5 days observation; read-out: PD50

With `CNC1C(OC2C(O)C(OC3OC(CO)C(O)C(N)C3O)C(OC(N)=O)C(O)C2OC(N)=O)OCC(OC2OC(C(O)CO)C(O)C(O)C2O)C1O` (centres unmarked) [Boholmycin] the MIC (P. aeruginosa A20601) was 12.5 µg/mL (≈ 16.3 µM), the “solubility in methanol and ethanol” value (solubility; methanol and ethanol) was “slightly soluble in methanol and ethanol” and the “solubility in other organic solvents” value (solubility; other organic solvents) was “practically insoluble in other organic solvents”. The solubility in water (solubility; water) was “freely soluble in water”, the MIC (E. coli JR35/c600) was 25 µg/mL (≈ 32.7 µM) and the MIC (B. anthracis IID-115) was 25 µg/mL (≈ 32.7 µM). For the same compound, the MIC (M. luteus PCI-1001) was 200 µg/mL (≈ 262 µM), the MIC (E. coli K-12) was 25 µg/mL (≈ 32.7 µM) and the “in vivo activity compared with streptomycin and kanamycin” value [1] was “much less active than streptomycin and kanamycin”. The MIC (E. coli Juhl [2]) was 100 µg/mL (≈ 131 µM), the MIC (E. cloacae A21006) was 50 µg/mL (≈ 65.4 µM) and the basicity (basicity) was “weakly basic”. The MIC (K. pneumoniae D-11 [3]) was 6.3 µg/mL (≈ 8.24 µM), the MIC (P. vulgaris A9436) was 6.3 µg/mL (≈ 8.24 µM) and the MIC (M. flavus D-12) was 100 µg/mL (≈ 131 µM). For the same compound, the MIC (S. aureus A20239) was over 200 µg/mL, the ED50 (K. pneumoniae D-11 [4]) was 65 mg/kg and the MIC (Mycobacterium phlei) was 6.3 µg/mL (≈ 8.24 µM). It also gave an MIC (P. mirabilis A9554) of 50 µg/mL (≈ 65.4 µM), an MIC (B. subtilis ATCC6633) of 50 µg/mL (≈ 65.4 µM) and an MIC (E. coli NIHJ) of 50 µg/mL (≈ 65.4 µM). The “antibacterial activity compared with sorbistin A1” value (bacteria; Table 3 overall, vs sorbistin A1) was “comparable to that of sorbistin A1”, the “antibacterial activity compared with streptomycin or kanamycin” value (bacteria; Table 3 overall, vs streptomycin or kanamycin) was “generally weaker than that of streptomycin or kanamycin” and the “activity against kanamycin and streptomycin-resistant organisms” value (bacteria; resistant vs sensitive organisms) was “as active against kanamycin and streptomycin-resistant organisms as against the sensitive ones”. For the same compound, the MIC (S. aureus Smith [5]) was 200 µg/mL (≈ 262 µM), the ED50 (S. aureus Smith [6]) was 75 mg/kg and the “stability in alkaline solution” value (stability in solution; alkaline solution) was “unstable in alkaline solution”. For the same compound, the “stability in neutral and acidic solution” value (stability in solution; neutral and acidic solution) was “reasonably stable in neutral and acidic solution”, the MIC (E. coli A20664) was 12.5 µg/mL (≈ 16.3 µM) and the MIC (Mycobacterium 607 D46) was 25 µg/mL (≈ 32.7 µM). For the same compound, the MIC (S. marcescens A22302) was 100 µg/mL (≈ 131 µM), the MIC (P. aeruginosa A9843A) was 200 µg/mL (≈ 262 µM) and the MIC (Mycobacterium ranae) was 25 µg/mL (≈ 32.7 µM). The zone of inhibition at 10000 µg/mL (B. subtilis PCI-219; 10 mg/ml) was 30 mm, the zone of inhibition at 40000 µg/mL (B. subtilis PCI-219; 40 mg/ml) was 33 mm and the MIC (Mycobacterium 607 D87) was 25 µg/mL (≈ 32.7 µM). The MIC (S. marcescens A20019) was 100 µg/mL (≈ 131 µM), the MIC (P. aeruginosa A9930) was 100 µg/mL (≈ 131 µM) and the toxic signs [7] was “did not show any toxic signs”. For the same compound, the MIC (S. aureus 209P) was 200 µg/mL (≈ 262 µM), the MIC (K. pneumoniae A9678) was 100 µg/mL (≈ 131 µM) and the MIC (E. cloacae A20364) was 50 µg/mL (≈ 65.4 µM). For the same compound, the “Growth zone vs E. coli D64, hazy growth zone” value (E. coli D64; 10 mg/ml, 37° C., 45 hours) was 16 mm, the “Growth zone vs E. coli D64” value (E. coli D64; 40 mg/ml, 37° C., 45 hours) was 18 mm and the “Growth zone vs E. coli D64, hazy growth zone” value (E. coli D64; 40 mg/ml, 37° C., 45 hours) was 23 mm. For the same compound, the “induction/stimulation of growth of streptomycin-dependent E. coli D64” value (E. coli D64; result in words) was “induced the growth” and the ED50 (E. coli Juhl [8]) was 100 mg/kg.
